“Also recorded” adds a separate entry of the source. Like-named read-outs stand apart in the source and are kept apart here.

The text below walks through data of patent US9353075B2, “Disubstituted beta-lactones as inhibitors of N-acylethanolamine acid amidase (NAAA)” (The Regents of the University of California, priority 2011, dated 2016).

Series [1] in a line: Chemical stability in PBS buffer pH 7.4. The series is classed as physicochemical. The following applies: phosphate-buffered saline, 0.01M PBS pH 7.4, 37° C., read-out: Stability in PBS buffer, pH 7.4 t1/2. As for the experimental part:
Chemical stability of select compounds was evaluated under physiological pH conditions (0.01M Phosphate-Buffered Saline, pH 7.4) for up to 24 h. Stock solutions of each compound (10 mM) were prepared freshly in DMSO. Each compound was incubated at a final concentration of 10 μM (1% DMSO) in pre-heated buffer (0.01M Phosphate-Buffered Saline (PBS), pH 7.4 at 37° C.). The sample solutions were divided into aliquots in glass vials (pre-heated at 37° C.) for each time point. The samples were maintained at 37° C. in the UPLC/MS Autosampler during the study (no shaking). A reference solution of each compound (final concentration: 10 μM at 1% DMSO) in pre-heated CH3CN (37° C.) was prepared from the stock solutions (10 mM in DMSO). The reference solutions were maintained at 37° C. in the UPLC/MS Autosampler during the study (no shaking). An internal standard (100 nM) was added to the sample and reference solutions. For each time point, the samples were analyzed directly by LC/MS without any further sample preparation. The samples were analyzed (triplicate injection) by monitoring the MS trace by Multiple Reaction Monitoring (MRM). The compound concentration (expressed as %) was calculated by dividing the peak area at each time point by the peak area at t=0 min. The reference solution was analyzed at the beginning (t=0 min.), and at the end of the study (t=24 h). The apparent half-lives (t1/2) of the disappearance of compound were calculated by a one-phase decay equation using a non-linear regression of compound concentration versus time.
The analyses were performed on a Waters ACQUITY UPLC/MS TQD system consisting of a TQD (Triple Quadropole Detector) Mass Spectrometer equipped with an Electrospray Ionization interface and a Photodiode Array Detector. The analyses were run on an ACQUITY UPLC BEH C18 1.7 μm 2.1×50 mm column with a VanGuard BEH C18 1.7 μm pre-column at 40° C. The mobile phase was 0.1% HCOOH in H2O (A) and 0.1% HCOOH in CH3CN (B) using a linear gradient: 0-0.2 min.: 5% B, 0.2-2.2 min.: 5-95% B, 2.2-2.3 min.: 95-5% B, 2.3-3 min.: 5% B with flow rate at 0.5 mL/min. […]

The subject of series [2] is carrageenan-induced paw edema and hyperalgesia. The series can be described thus: Carrageenan-induced inflammatory responses in mice. The series is classed as in vivo, mouse. As for the experimental part: The Methods include the following: Carragenan (1%) was injected into the left hind paw of Swiss albino mice. Paw edema was measured using a plethysmomether. Cutaneous hyperalgesia (thermal) was assesed by the plantar test (see Hargreaves K, et a 1 (1988), Pain 32: 77-88). Compound 6 was administered topically.

The target in a further series is Acid Ceramidase (AC) (Rattus norvegicus (Rat), UniProt Q6P7S1). The series can be described thus: Acid ceramidase inhibition, recombinant rat AC, LC-MS. The following applies: read-out: r-AC % inhib. @ 10 μM. The class given is biochemical. Here is the method:
The PCR (High Fidelity PCR Master, Roche) product was subcloned into a pEF6-[…] vector (Invitrogen) to construct a mammalian expression vector encoding […]-tagged rat AC. HEK293 cells were transfected with pEF6-rAC-[…] using Super-Fect reagent (Qiagen) and screened with G418 (0.3 mg/mL). Cells were suspended in 20 mM Tris HCl (pH 7.5) containing 0.32M sucrose, sonicated and centrifuged at 800×g for 15 minutes at 4° C. The supernatants were centrifuged again at 12,000×g for 30 minutes at 4° C. The pellets were suspended in phosphate-buffered saline (PBS) and subjected to 2 freeze-thaw cycles at -80° C. The suspensions were centrifuged at 105,000×g for 1 hour at 4° C. The supernatants containing recombinant AC were kept at -80° C. until use. Protein concentration was measured using the bicinchoninic acid (BCA) assay (Pierce). […] Reactions were stopped by addition of a mixture of chloroform/methanol (2:1, vol/vol) containing 1 nmol of heptadecanoic acid (HDA; NuChek Prep). […] HDA was eluted on an XDB Eclipse C18 column isocratically at 2.2 mL/min for 1 minute with a solvent mixture of 95% methanol and 5% water, both containing 0.25% acetic acid and 5 mM ammonium acetate. The column temperature was 50° C. Electrospray ionization (ESI) was in the negative mode, capillary voltage as 4 kV, and fragmentor voltage was 100 V. N2 was used as drying gas at a flow rate of 13 L/min and a temperature of 350° C. Nebulizer pressure was set at 60 psi. We monitored [M-H]- in the selected-ion monitoring (SIM) mode using HDA as internal standard. Calibration curves were generated using commercial lauric acid (Nu-Chek Prep; m/z=199).

Series [3] concerns 48/80-induced scratching (mast cell degranulation). The series can be described thus: Compound 48/80-induced scratching in mice. Particulars: topical, single dose. The class given is in vivo, mouse. Here is the method:
The methods include the following. Itching in mice was induced with DNFB as previously described. Additional studies were done with 48/80 model (an inducer of mast cell degranulation). 48/80 was given subcutaneously (30 mg per kg).

Series [4] has as its system skin integrity (ear thickness, histopathology). The following applies: in vivo. As for the experimental part:
The methods included the following. Drug or vehicle were given topical to both ears of CD1 mice for 14 days. Ear thickness was determined by using a micrometer. Histopathological analyses were conducted on formalin-fixed, paraffin-embedded ear sections […] thick and stained with Hematoxylin-Eosin. Epidermal thickness was measured with standard morphometric methods from 12 different samplings spanning the treated area of each ear. Data were analysed by ANOVA followed by Bonferroni's test for multiple comparisons.

[5] abbreviates: compound 6 30% topical, antagonists 1 μg/paw intraplantar.

Chain of Acid Ceramidase (AC) (Q6P7S1 21-394): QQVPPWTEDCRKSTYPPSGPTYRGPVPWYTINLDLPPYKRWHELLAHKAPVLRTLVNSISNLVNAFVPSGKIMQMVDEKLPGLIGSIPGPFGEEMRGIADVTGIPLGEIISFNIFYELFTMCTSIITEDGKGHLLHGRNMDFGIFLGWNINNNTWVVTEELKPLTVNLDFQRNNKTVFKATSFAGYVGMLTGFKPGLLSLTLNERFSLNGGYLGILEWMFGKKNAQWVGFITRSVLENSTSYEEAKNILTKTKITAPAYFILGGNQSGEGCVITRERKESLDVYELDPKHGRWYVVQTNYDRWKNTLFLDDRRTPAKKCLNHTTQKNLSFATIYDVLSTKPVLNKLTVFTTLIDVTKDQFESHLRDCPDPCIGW

Regarding `C[C@@H]1OC(=O)[C@@H]1NC(=O)OCCCCCc1ccccc1` [Example 6, 5-phenylpentyl-[(2S,3R)-2-methyl-4-oxooxetan-3-yl]-carbamate], the half-life at 10 μM in series [1] amounted to 1.7 h. In series [2] (setting [5]), the “Anti-inflammatory effect on cutaneous hyperalgesia with receptor antagonists” value is reported as “blocked by PPAR-α antagonists, but not by CB1 or CB2 receptor antagonists” and the “Anti-inflammatory effect on paw edema with receptor antagonists” value is on record as “blocked by PPAR-α antagonists, but not by CB1 or CB2 cannabinoid receptor antagonists”. Besides, in series [2] (mice, topical), the Carrageenan-induced paw edema entry was “marked anti-inflammatory”. In addition, the Carrageenan-induced hyperalgesia entry in series [2] (mice, topical, 90 min after carrageenan) is given as “dose-dependently reduces carrageenan-induced hyperalgesia; also recorded: anti-hyperalgesic effects”. For the same molecule, in series [2] (topical, 90 min after carrageenan), the “Anti-inflammatory effects on paw edema and cutaneous hyperalgesia in mice lacking PPAR-α” value is reported as “absent in mice lacking PPAR-α”. In addition, the inhibition at 10 µM on Acid Ceramidase (AC) is less than 10%. Further, in series [3], the “Dose of maximal effect, 48/80-induced scratching” value came out at 1% and the “Lowest effective dose, 48/80-induced scratching” value worked out at 0.01%. Moreover, the 48/80-induced scratching result in series [3] (48/80 30 mg per kg s.c.) is reported as “prevents 48/80-induced scratching”. In series [4] (CD1, mouse, 14 days), the “Cellular architecture, histopathological and morphometric analysis” value is reported as “but not compound 6, altered cellular architecture”; the “Skin atrophy (decrease of ear thickness)” value is “but not compound 6, causes skin atrophy”. For the same molecule, in series [4] (mouse), the “Cellular architecture, histopathological and morphometric analysis” value is reported as “no alterations of cellular structure”; the “Skin atrophy (decrease of ear thickness)” value was “did not affect skin integrity”.
